{"source": "patent US20230111712A1", "about": "“STABLE REACTIVE COMPOSITIONS FOR BIOCONJUGATION, PROBES, AND PROTEIN LABELING” (ARIZONA BOARD OF REGENTS ON BEHALF OF THE UNIVERSITY OF …, priority 2020, published 2023)", "origin": "cited, not measured here", "conditions": "reported value", "data": [{"smiles": "CCCN", "note": "[propyl ammonium, propyl amine]", "values": [{"measurement": "pKa", "result": 10.5}]}]}
